Results on two molecules are retold here after PMC11952368 (bioRxiv, 2025).

Series [1] in a line: body and spleen weight / systemic toxicity, combination with Dox. In kind it is in vivo, BALB/c mice. The note with it: Dox 5 mg/kg i.p. every 72 hr; n=4 mice per group.
The subject of series [2] is mammary tumor. Particulars: ref [87]; cited from earlier work.

With `COc1cccc2c1C(=O)c1c(O)c3c(c(O)c1C2=O)C[C@@](O)(C(=O)CO)C[C@@H]3O[C@H]1C[C@H](N)[C@H](O)[C@H](C)O1` [Dox, doxorubicin], the “body and spleen weight” value in series [1] is “loss of body and spleen weight”. On to `Cc1ccc(=O)n(-c2ccccc2)c1` [Pirfenidone], for which the “tumor ECM normalization and chemotherapy response” value in series [2] was “normalizes the tumor ECM for enhanced chemotherapy response”.
